Values of other authors as cited in patent US10500182B2, “Compositions of ketogenic sources, micronutrients and phytochemicals for prophylaxis and mitigation of migraine headache” (priority 2018, dated 2019).

How the values were obtained:
migraine [1] = settings: ten percent solution applied topically to the forehead and temples
migraine [2] = settings: oral and intravenous supplementation, migraineurs

SMILES | migraine pain and nausea (migraine [1]) | reduction of migraine frequency and severity (migraine [2])
CC1CCC(C(C)C)C(O)C1 (centres unmarked) [menthol] | effective at terminating migraine pain and easing nausea | 
[Mg+2] [magnesium, Magnesium] |  | more than 40%
